# In patent US12052991B2, “Substituted pyridinyloxybenzenes and salts thereof and use thereof as herbicidal agents” (Bayer Aktiengesellschaft, priority 2018, dated 2024):
# Columns and labels:
# Assay type in all cases: in vivo
# [1] = tested on: Setaria viridis (SETVI); assay: Herbicidal pre-emergence action, test C (Table C4); conditions: visual scoring after about 3 weeks, 100% = plants have died, 0% = like control plants
# Method in brief: (§1)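 In this test, soil-covered weed seeds in sandy loam received a surface application of compound at 1280 or 320 g/ha. Effects were rated visually as percentages compared with untreated controls roughly 3 weeks later.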
# [2] = tested on: Matricaria inodora (MATIN); assay: Herbicidal post-emergence action (Table B7); conditions: rated visually after about 3 weeks, 100% = plants have died, 0% = like control plants
# Procedure: (§2) Seeds of mono- and dicotyledonous weed plants were placed in plastic pots in sandy loam soil (doubly sown with in each case one species of mono- or dicotyledonous weed plants per pot), covered with soil and cultivated in a greenhouse under controlled growth conditions. 2 to 3 weeks after sowing, the test plants were treated at the one-leaf stage. The compounds of the invention, formulated in the form of wettable powders (WP) or as emulsion concentrates (EC), were applied onto the green parts of the plants as aqueous suspension or emulsion with addition of 0.5% additive at a water application rate of 600 liters per hectare (converted). After the test plants had been kept in the greenhouse under optimum growth conditions for about 3 weeks, the activity of the preparations was rated visually in comparison to untreated controls. For example, 100% activity=the plants have died, 0% activity=like control plants. Tables B1 to B12 below show the effects of selected compounds of the general formula (I) according to Table 1 on various harmful plants and an application rate corresponding to 1280 or 320 g/ha, which were obtained by the experimental procedure mentioned above.
# [3] = tested on: Poa annua (POAAN); assay: Herbicidal post-emergence action (Table B3); conditions: rated visually after about 3 weeks, 100% = plants have died, 0% = like control plants
# Method in brief: (§3)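 Visual percent activity relative to untreated controls (100% = plants dead, 0% = like controls) was scored about 3 weeks after treatment. Plants had been sprayed at the one-leaf stage with formulated compound at 1280 or 320 g/ha in 600 L/ha water containing 0.5% additive.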
# [4] = tested on: Poa annua (POAAN); assay: Herbicidal pre-emergence action, test C (Table C3); conditions: visual scoring after about 3 weeks, 100% = plants have died, 0% = like control plants
# Method in brief: as §1
# [5] = tested on: Veronica persica (VERPE); assay: Herbicidal post-emergence action (Table B12); conditions: visual rating about 3 weeks after treatment, 100% = plants have died, 0% = like control plants
# Method in brief: as §3
# [6] = tested on: Abutilon theophrasti (ABUTH); assay: Herbicidal post-emergence action (Table B5); conditions: rated visually after about 3 weeks, 100% = plants have died, 0% = like control plants
# Method in brief: as §3
# [7] = tested on: harmful plants ABUTH, AMARE, ECHCG, LOLRI, MATIN, POAAN, SETVI, STEME, ALOMY, DIGSA, KCHSC and VERPE; assay: Herbicidal post-emergence action, summary of Tables B1-B12; conditions: application rate of 1280 or 320 g of active ingredient per hectare; summary in words
# Method in brief: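 Greenhouse weeds in sandy loam treated post-emergence at the one-leaf stage, 2–3 weeks after sowing, with WP or EC formulations sprayed with 0.5% additive at 600 L/ha water, 1280 or 320 g/ha. Damage rated visually after about 3 weeks versus untreated controls (0% = like control, 100% = dead).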
# [8] = tested on: Alopecurus myosuroides (ALOMY); assay: Herbicidal pre-emergence action, test C (Table C9); conditions: dosage 1280 g/ha; visual scoring after about 3 weeks; 100% = plants have died, 0% = like control plants
# Method in brief: as §1
# [9] = tested on: Amaranthus retroflexus (AMARE); assay: Herbicidal post-emergence action (Table B6); conditions: visual rating about 3 weeks after treatment, 100% = plants have died, 0% = like control plants
# Method in brief: as §3
# [10] = tested on: Digitaria sanguinalis (DIGSA); assay: Herbicidal pre-emergence action, test C (Table C10); conditions: visual scoring after about 3 weeks, 100% = plants have died, 0% = like control plants
# Method in brief: as §1
# [11] = tested on: harmful plants ABUTH, AMARE, ECHCG, LOLRI, MATIN, POAAN, SETVI, STEME, ALOMY, DIGSA, KCHSC and VERPE; assay: Herbicidal pre-emergence action (test C), summary of Tables C1-C12; conditions: application rate of 1280 or 320 g of active ingredient per hectare; summary in words
# Method in brief: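 Pre-emergence pot test in sandy loam: WP or EC formulations were sprayed onto the covering soil with 0.5% additive at 600 L/ha water, at 1280 or 320 g/ha. Plants were kept in the greenhouse, and activity was rated visually about 3 weeks later as % versus untreated controls (100% = dead).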
# [12] = tested on: Veronica persica (VERPE); assay: Herbicidal pre-emergence action, test C (Table C12); conditions: visual scoring vs untreated controls
# Method in brief: as §1
# [13] = tested on: Stellaria media (STEME); assay: Herbicidal post-emergence action (Table B8); conditions: visual rating about 3 weeks after treatment, 100% = plants have died, 0% = like control plants
# Method in brief: as §3
# [14] = tested on: Amaranthus retroflexus (AMARE); assay: Herbicidal pre-emergence action, test C (Table C6); conditions: visual scoring after about 3 weeks, 100% = plants have died, 0% = like control plants
# Method in brief: as §1
# [15] = tested on: Echinochloa crus-galli (ECHCG); assay: Herbicidal pre-emergence action, test C (Table C1); conditions: dosage 1280 g/ha; visual scoring after about 3 weeks; 100% = plants have died, 0% = like control plants
# Method in brief: as §1
# [16] = tested on: Lolium rigidum (LOLRI); assay: Herbicidal pre-emergence action, test C (Table C2); conditions: dosage 1280 g/ha; visual scoring after about 3 weeks; 100% = plants have died, 0% = like control plants
# Method in brief: as §1
# [17] = tested on: Lolium rigidum (LOLRI); assay: Herbicidal post-emergence action (Table B2); conditions: 1280 g/ha; rated visually after about 3 weeks; 100% = plants have died, 0% = like control plants
# Procedure: as §2
# [18] = tested on: Bassia scoparia (KCHSC); assay: Herbicidal post-emergence action (Table B11); conditions: visual rating about 3 weeks after treatment, 100% = plants have died, 0% = like control plants
# Method in brief: as §3
# [19] = tested on: Setaria viridis (SETVI); assay: Herbicidal post-emergence action (Table B4); conditions: 1280 g/ha; rated visually after about 3 weeks; 100% = plants have died, 0% = like control plants
# Procedure: as §2
# [20] = tested on: Alopecurus myosuroides (ALOMY); assay: Herbicidal post-emergence action (Table B9); conditions: rated visually after about 3 weeks, 100% = plants have died, 0% = like control plants
# Method in brief: as §3
# [21] = tested on: Bassia scoparia (KCHSC); assay: Herbicidal pre-emergence action, test C (Table C11); conditions: visual scoring vs untreated controls
# Method in brief: as §1
# [22] = tested on: Matricaria inodora (MATIN); assay: Herbicidal pre-emergence action, test C (Table C7); conditions: dosage 1280 g/ha; visual scoring after about 3 weeks; 100% = plants have died, 0% = like control plants
# Method in brief: as §1
# [23] = tested on: Stellaria media (STEME); assay: Herbicidal pre-emergence action, test C (Table C8); conditions: visual scoring after about 3 weeks, 100% = plants have died, 0% = like control plants
# Method in brief: as §1
# [24] = tested on: Digitaria sanguinalis (DIGSA); assay: Herbicidal post-emergence action (Table B10); conditions: visual rating about 3 weeks after treatment, 100% = plants have died, 0% = like control plants
# Method in brief: as §3
# [25] = tested on: Abutilon theophrasti (ABUTH); assay: Herbicidal pre-emergence action, test C (Table C5); conditions: visual scoring after about 3 weeks, 100% = plants have died, 0% = like control plants
# Method in brief: as §1
# [26] = tested on: Echinochloa crus-galli (ECHCG); assay: Herbicidal post-emergence action (Table B1); conditions: rated visually after about 3 weeks, 100% = plants have died, 0% = like control plants
# Method in brief: as §3
compound,measurement,setting,value
Fc1cc(Cl)cnc1Oc1ccccc1-c1ccc(Cl)cn1 [Example 1-74],Pre-emergence action against Setaria viridis (SETVI),[1]; dosage 1280 g/ha,100%
same,Post-emergence action against Matricaria inodora (MATIN),[2]; 320 g/ha,100%
same,Post-emergence action against Matricaria inodora (MATIN),[2]; 1280 g/ha,100%
same,Post-emergence action against Poa annua (POAAN),[3]; 320 g/ha,100%
same,Post-emergence action against Poa annua (POAAN),[3]; 1280 g/ha,100%
same,Pre-emergence action against Poa annua (POAAN),[4]; dosage 320 g/ha,100%
same,Pre-emergence action against Poa annua (POAAN),[4]; dosage 1280 g/ha,100%
same,Post-emergence action against Veronica persica (VERPE),[5]; dosage 320 g/ha,100%
same,Post-emergence action against Veronica persica (VERPE),[5]; dosage 1280 g/ha,100%
same,Post-emergence action against Abutilon theophrasti (ABUTH),[6]; 320 g/ha,90%
same,Post-emergence action against Abutilon theophrasti (ABUTH),[6]; 1280 g/ha,100%
same,herbicidal activity against the harmful plants of Tables B1-B12 in post-emergence treatment,[7],very good herbicidal activity
same,Pre-emergence action against Alopecurus myosuroides (ALOMY),[8],100%
same,Post-emergence action against Amaranthus retroflexus (AMARE),[9]; dosage 320 g/ha,100%
same,Post-emergence action against Amaranthus retroflexus (AMARE),[9]; dosage 1280 g/ha,100%
same,Pre-emergence action against Digitaria sanguinalis (DIGSA),[10]; dosage 320 g/ha,90%
same,Pre-emergence action against Digitaria sanguinalis (DIGSA),[10]; dosage 1280 g/ha,100%
same,herbicidal activity against the harmful plants of Tables C1-C12 in pre-emergence treatment,[11],very good herbicidal activity
same,Pre-emergence action against Veronica persica (VERPE),[12]; dosage 1280 g/ha,90%
same,Post-emergence action against Stellaria media (STEME),[13]; dosage 1280 g/ha,90%
same,Pre-emergence action against Amaranthus retroflexus (AMARE),[14]; dosage 320 g/ha,90%
same,Pre-emergence action against Amaranthus retroflexus (AMARE),[14]; dosage 1280 g/ha,90%
Fc1ccc(Oc2ncc(Cl)cc2F)c(-c2cc(C(F)F)on2)c1 [Example 1-31],Pre-emergence action against Setaria viridis (SETVI),[1]; dosage 320 g/ha,100%
same,Pre-emergence action against Setaria viridis (SETVI),[1]; dosage 1280 g/ha,100%
same,Pre-emergence action against Echinochloa crus-galli (ECHCG),[15],100%
same,Post-emergence action against Poa annua (POAAN),[3]; 320 g/ha,100%
same,Post-emergence action against Poa annua (POAAN),[3]; 1280 g/ha,100%
same,Pre-emergence action against Poa annua (POAAN),[4]; dosage 320 g/ha,90%
same,Pre-emergence action against Poa annua (POAAN),[4]; dosage 1280 g/ha,100%
same,Pre-emergence action against Lolium rigidum (LOLRI),[16],100%
same,Post-emergence action against Veronica persica (VERPE),[5]; dosage 320 g/ha,100%
same,Post-emergence action against Veronica persica (VERPE),[5]; dosage 1280 g/ha,100%
same,Post-emergence action against Lolium rigidum (LOLRI),[17],90%
same,Post-emergence action against Bassia scoparia (KCHSC),[18]; dosage 320 g/ha,90%
same,Post-emergence action against Bassia scoparia (KCHSC),[18]; dosage 1280 g/ha,100%
same,Post-emergence action against Abutilon theophrasti (ABUTH),[6]; 320 g/ha,90%
same,Post-emergence action against Abutilon theophrasti (ABUTH),[6]; 1280 g/ha,100%
same,herbicidal activity against the harmful plants of Tables B1-B12 in post-emergence treatment,[7],very good herbicidal activity
same,Pre-emergence action against Alopecurus myosuroides (ALOMY),[8],100%
same,Post-emergence action against Amaranthus retroflexus (AMARE),[9]; dosage 320 g/ha,100%
same,Post-emergence action against Amaranthus retroflexus (AMARE),[9]; dosage 1280 g/ha,100%
same,Post-emergence action against Setaria viridis (SETVI),[19],100%
same,Pre-emergence action against Digitaria sanguinalis (DIGSA),[10]; dosage 320 g/ha,90%
same,Pre-emergence action against Digitaria sanguinalis (DIGSA),[10]; dosage 1280 g/ha,100%
same,Post-emergence action against Alopecurus myosuroides (ALOMY),[20]; 320 g/ha,100%
same,Post-emergence action against Alopecurus myosuroides (ALOMY),[20]; 1280 g/ha,100%
same,Pre-emergence action against Bassia scoparia (KCHSC),[21]; dosage 320 g/ha,90%
same,Pre-emergence action against Bassia scoparia (KCHSC),[21]; dosage 1280 g/ha,100%
same,Pre-emergence action against Matricaria inodora (MATIN),[22],90%
same,Pre-emergence action against Stellaria media (STEME),[23]; dosage 320 g/ha,100%
same,Pre-emergence action against Stellaria media (STEME),[23]; dosage 1280 g/ha,100%
same,herbicidal activity against the harmful plants of Tables C1-C12 in pre-emergence treatment,[11],very good herbicidal activity
same,Post-emergence action against Digitaria sanguinalis (DIGSA),[24]; dosage 320 g/ha,90%
same,Post-emergence action against Digitaria sanguinalis (DIGSA),[24]; dosage 1280 g/ha,100%
same,Pre-emergence action against Veronica persica (VERPE),[12]; dosage 320 g/ha,100%
same,Pre-emergence action against Veronica persica (VERPE),[12]; dosage 1280 g/ha,100%
same,Pre-emergence action against Abutilon theophrasti (ABUTH),[25]; dosage 320 g/ha,90%
same,Pre-emergence action against Abutilon theophrasti (ABUTH),[25]; dosage 1280 g/ha,100%
same,Post-emergence action against Echinochloa crus-galli (ECHCG),[26]; 320 g/ha,90%
same,Post-emergence action against Echinochloa crus-galli (ECHCG),[26]; 1280 g/ha,100%
same,Post-emergence action against Stellaria media (STEME),[13]; dosage 320 g/ha,100%
same,Post-emergence action against Stellaria media (STEME),[13]; dosage 1280 g/ha,100%
same,Pre-emergence action against Amaranthus retroflexus (AMARE),[14]; dosage 320 g/ha,100%
same,Pre-emergence action against Amaranthus retroflexus (AMARE),[14]; dosage 1280 g/ha,100%
Clc1ccc(Oc2ccccc2-c2ccc(Cl)cn2)nc1 [Example 1-75],Post-emergence action against Matricaria inodora (MATIN),[2]; 1280 g/ha,100%
same,Post-emergence action against Veronica persica (VERPE),[5]; dosage 1280 g/ha,100%
same,herbicidal activity against the harmful plants of Tables B1-B12 in post-emergence treatment,[7],very good herbicidal activity
same,Post-emergence action against Alopecurus myosuroides (ALOMY),[20]; 1280 g/ha,90%
same,Post-emergence action against Echinochloa crus-galli (ECHCG),[26]; 1280 g/ha,100%
